Measured values published in patent US11485728B2, “Small molecules for the treatment of autoimmune diseases and cancer” (Athos Therapeutics, Inc., priority 2020, dated 2022).

Assays:
CYP1A2 = molecular target: T1, CYP1A2 (Homo sapiens, UniProt P05177); assay: CYP-direct inhibition, CYP1A2; type: in vitro ADME; conditions: human liver microsome; substrate ethoxy-resorufin; read-out: IC50 CYP-1A2
T1 construct: from tissue; host or cells: pooled human liver microsomes
T1 sequence (P05177 1-516): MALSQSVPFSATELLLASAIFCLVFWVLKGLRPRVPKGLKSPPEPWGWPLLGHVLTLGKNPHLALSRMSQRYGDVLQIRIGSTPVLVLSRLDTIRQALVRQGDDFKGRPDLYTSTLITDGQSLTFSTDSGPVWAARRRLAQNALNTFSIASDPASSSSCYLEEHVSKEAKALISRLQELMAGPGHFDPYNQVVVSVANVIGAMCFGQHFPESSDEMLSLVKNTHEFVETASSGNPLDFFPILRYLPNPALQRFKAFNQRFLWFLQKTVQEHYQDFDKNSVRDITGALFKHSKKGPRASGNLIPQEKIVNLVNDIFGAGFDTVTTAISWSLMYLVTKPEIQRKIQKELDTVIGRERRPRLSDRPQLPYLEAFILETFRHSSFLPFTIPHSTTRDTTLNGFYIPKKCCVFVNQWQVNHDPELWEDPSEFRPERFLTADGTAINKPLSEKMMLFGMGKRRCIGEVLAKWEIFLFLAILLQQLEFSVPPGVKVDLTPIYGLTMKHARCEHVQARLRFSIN
Description: (§1) Many drugs inhibit cytochrome P450 enzymes to cause clinically significant changes in the pharmacokinetics of other drugs. In vitro cytochrome P450 inhibition, can provide crucial information in evaluating potential clinical drug-drug interactions and is useful for focusing in vivo tests to areas of concern. The cytochrome P450 inhibition assay was developed by preparing a working cocktail solution consisting of six probe substrates 10 μM ethoxy-resorufin (CYP1A2), 100 μM rosiglitazone (CYP2C8), 50 μM diclofenac (CYP2C9), 300 μM S-mephenytoin (CYP2C19), 50 μM dextromethorphan (CYP2D6), and 20 μM midazolam (CYP3A4). A mixture solution consists of 140 uL of 0.286 mg/mL of pooled human liver microsome working solution and 20 uL working solutions of test articles, standard control inhibitors, or positive control placebo and 20 uL of substrate cocktail mixture working solution was prepared. The mixture solution was pre-warm in a gentle shaking bath at 37±2° C. for 5 minutes. The enzymatic reaction started by adding 20 uL of NRS working solution to the mixture solution and incubated for 10 minutes at 37±2° C. To stop the reaction, an addition of 400 μL cold stop solution (acetonitrile containing 50 ng/mL Tolbutamide as an internal standard (I.Std.) was added to the mixture solution. The final concentration of test article, inhibitors, substrates, and cofactors are noted in Table 0.1 below. Two individual samples were prepared for each test compound. The extracted samples were vortexed and then centrifuged at 4500 rpm for 7 minutes using Eppendorf Centrifuge 5910R. 200 uL of supernatant was diluting with 200 uL of 50% Methanol into 96-DW plate for LC/MS/MS analysis
(§2) Concentration-response plots are used to determine the effects of an inhibitor on an enzymatic reaction. A typical concentration-response plot provides fractional activity (Y axis) is plotted as a function of log inhibitor concentration (X axis). The data are fitted using a standard Sigmoidal dose-response equation which is also called a […] logistic equation. The concentration of compound that results in 50% inhibition of maximal activity is termed as the IC50 (inhibitor concentration yielding 50% inhibition). IC50 value is calculated using Prism GraphPad software, version 9. […].
(§3) Cytochrome P450 inhibition of a drug is a key factor in determining pharmacokinetic drug-drug interactions. The objective of this study was to evaluate the inhibition potential of G9a inhibitors on six (6) major human cytochrome P450 enzymes, including CYP1A2, CYP2C8, CYP2C9, CYP2C19, CYP2D6, and CYP3A4. Inhibition was determined by using a substrate cocktail and analyzing the rate of specific metabolites formation. The cytochrome P450 inhibition assay was developed using a cocktail consisting of six (6) probe substrates ethoxy-resorufin (CYP1A2), rosiglitazone (CYP2C8), diclofenac (CYP2C9), S-mephenytoin (CYP2C19), dextromethorphan (CYP2D6), and midazolam (CYP3A4). The cocktail was incubated in human liver microsome with NADPH regenerating system (NRS) in a shaking bath at 37±2° C. The formation of specific metabolites was monitored by LC/MS/MS. Test compound was added to the cocktail-liver microsome mixture at varying concentrations and its effect on cytochrome P450 activity was determined by analyzing the rate of specific metabolite formation. The percent inhibition was calculated and plotted with reference to the concentration, and the IC50 value for inhibition was derived by fitting the data with a using log(inhibitor) vs. normalized response with variable slope least squares fit by Graphpad Prism® software. […].

CYP2C8 = molecular target: T2, CYP2C8 (Homo sapiens, UniProt P10632); assay: CYP-direct inhibition, CYP2C8; type: in vitro ADME
T2 construct: from tissue; host or cells: pooled human liver microsomes
T2 sequence (P10632 1-490): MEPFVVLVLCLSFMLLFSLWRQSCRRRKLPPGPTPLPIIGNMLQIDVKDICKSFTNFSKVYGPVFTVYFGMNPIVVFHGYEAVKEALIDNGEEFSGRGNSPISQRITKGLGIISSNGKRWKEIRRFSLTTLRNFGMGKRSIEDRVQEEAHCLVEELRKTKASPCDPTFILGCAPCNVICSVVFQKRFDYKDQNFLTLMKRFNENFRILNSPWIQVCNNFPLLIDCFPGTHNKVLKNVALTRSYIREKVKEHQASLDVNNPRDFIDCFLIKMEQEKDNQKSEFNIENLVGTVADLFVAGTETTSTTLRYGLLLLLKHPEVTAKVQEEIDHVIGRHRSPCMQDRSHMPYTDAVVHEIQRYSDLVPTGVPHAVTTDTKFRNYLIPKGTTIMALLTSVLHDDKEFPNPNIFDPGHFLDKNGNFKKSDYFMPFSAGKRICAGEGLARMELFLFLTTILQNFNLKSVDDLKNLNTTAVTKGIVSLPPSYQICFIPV
Description: as §1, §2, §3

PAMPA permeability = conditions: for Papp at 5 h, 20 μM: PAMPA, 5 hours at RT
[1] = PAMPA permeability Classification, 20 μM donor
[2] = Permeability, Pe, 20 μM donor in PBS/MeOH 90:10

Row | Structure (SMILES) | IC50 (CYP1A2) [µM] | IC50 (CYP2C8) [µM] | Papp at 5 h, 20 μM (PAMPA permeability; [1]) [×10⁻⁶ cm/s] | Papp at 5 h, 20 μM (PAMPA permeability; [2]) [×10⁻⁶ cm/s] | permeability / oral absorption potential (in words) (PAMPA permeability)
1 | COc1cc2c(NC3CCOCC3)nc(N3CCCC3)nc2cc1OCCCN1CCCC1 [Compound 164, 6-methoxy-2-(pyrrolidin-1-yl)-7-(3-(pyrrolidin-1-yl)propoxy)-N-(tetrahydro-2H-pyran-4-yl)quinazolin-4-amine] | > 100 | 91.8 | < 0.055 | 0.0476 | 
2 | COc1cc2c(NC3CCNCC3)nc(N3CCC(F)(F)CC3)nc2cc1OCCCN1CCCC1 [Compound 8, 2-(4,4-difluoropiperidin-1-yl)-6-methoxy-N-(piperidin-4-yl)-7-(3-(pyrrolidin-1-yl)propoxy)quinazolin-4-amine] | > 100 | > 100 | < 0.055 | 0.00173 | 
3 | COc1cc2c(NC3CCS(=O)(=O)CC3)nc(N3CCN(C)CC3)nc2cc1OCCCN1CCCC1 [Compound 109, 4-((6-methoxy-2-(4-methylpiperazin-1-yl)-7-(3-(pyrrolidin-1-yl)propoxy)quinazolin-4-yl)amino)tetrahydro-2H-thiopyran 1,1-dioxide] | > 100 | > 100 | < 0.055 | 0.00475 | 
4 | COc1cc2c(NC3CCOCC3)nc(N3CCC(F)(F)CC3)nc2cc1OCCCN1CCCC1 [Compound 2, 2-(4,4-difluoropiperidin-1-yl)-6-methoxy-7-(3-(pyrrolidin-1-yl)propoxy)-N-(tetrahydro-2H-pyran-4-yl)quinazolin-4-amine] | > 100 | 20.4 | > 1.5 | 6.38 | very high permeability
5 | COc1cc2c(NC3CCS(=O)(=O)CC3)nc(N3CCCC3)nc2cc1OCCCN1CCCC1 [Compound 80, 4-((6-methoxy-2-(pyrrolidin-1-yl)-7-(3-(pyrrolidin-1-yl)propoxy)quinazolin-4-yl)amino)tetrahydro-2H-thiopyran 1,1-dioxide] | > 100 | 23.4 | < 0.055 | 0.00298 | 
6 | COc1cc2c(NC3CCOCC3)nc(N3CCC3)nc2cc1OCCCN1CCCC1 [Compound 174, 2-(azetidin-1-yl)-6-methoxy-7-(3-(pyrrolidin-1-yl)propoxy)-N-(tetrahydro-2H-pyran-4-yl)quinazolin-4-amine] | 63.1 | > 100 | 0.055 to 1.5 | 0.0754 | 
7 | COc1cc2c(NC3CCN(C(C)C)CC3)nc(-n3cccn3)nc2cc1OCCCN1CCCC1 [Compound 157, N-(1-isopropylpiperidin-4-yl)-6-methoxy-2-(1H-pyrazol-1-yl)-7-(3-(pyrrolidin-1-yl)propoxy)quinazolin-4-amine] | > 100 | > 100 | < 0.055 | 0.000555 | 
8 | COc1cc2c(NC3CCOCC3)nc(N3CCOCC3)nc2cc1OCCCN1CCCC1 [Compound 195, 6-methoxy-2-morpholino-7-(3-(pyrrolidin-1-yl)propoxy)-N-(tetrahydro-2H-pyran-4-yl)quinazolin-4-amine] | > 100 | > 100 | 0.055 to 1.5 | 0.238 | 
9 | COc1cc2c(NC3CCOCC3)nc(N3CCS(=O)(=O)CC3)nc2cc1OCCCN1CCCC1 [Compound 196, 4-(6-methoxy-7-(3-(pyrrolidin-1-yl)propoxy)-4-((tetrahydro-2H-pyran-4-yl)amino)quinazolin-2-yl)thiomorpholine 1,1-dioxide] | > 100 | > 100 | < 0.055 | 0.035 | 
10 | COc1cc2c(NCC3CCN(C)CC3)nc(N3CCC(F)(F)CC3)nc2cc1OCCCN1CCCC1 [Compound 5, 2-(4,4-difluoropiperidin-1-yl)-6-methoxy-N-((1-methylpiperidin-4-yl)methyl)-7-(3-(pyrrolidin-1-yl)propoxy)quinazolin-4-amine] | > 100 | > 100 | < 0.055 | 0.00649 | 
11 | COc1cc2c(Nc3ccncc3)nc(-n3ccnc3)nc2cc1OCCCN1CCCC1 [Compound 130, 2-(1H-imidazol-1-yl)-6-methoxy-N-(pyridin-4-yl)-7-(3-(pyrrolidin-1-yl)propoxy)quinazolin-4-amine] | 10.4 | 4.66 | < 0.055 | 0.0129 | 
12 | COc1cc2c(NC3CCS(=O)(=O)CC3)nc(N3CCS(=O)(=O)CC3)nc2cc1OCCCN1CCCC1 [Compound 103, 4-(4-((1,1-dioxidotetrahydro-2H-thiopyran-4-yl)amino)-6-methoxy-7-(3-(pyrrolidin-1-yl)propoxy)quinazolin-2-yl)thiomorpholine 1,1-dioxide] | > 100 | > 100 | < 0.055 | 0.0119 | 
13 | COc1cc2c(NC3CCS(=O)(=O)CC3)nc(N3CCC(F)(F)CC3)nc2cc1C#CCN1CCCC1 [Compound 248, 4-((2-(4,4-difluoropiperidin-1-yl)-6-methoxy-7-(3-(pyrrolidin-1-yl)prop-1-yn-1-yl)quinazolin-4-yl)amino)tetrahydro-2H-thiopyran 1,1-dioxide] | > 100 | 43.1 | 0.055 to 1.5 | 1.32 | 
14 | COc1cc2c(NC3CCOCC3)nc(N3CCN(C)CC3)nc2cc1OCCCN1CCCC1 [Compound 236, 6-methoxy-2-(4-methylpiperazin-1-yl)-7-(3-(pyrrolidin-1-yl)propoxy)-N-(tetrahydro-2H-pyran-4-yl)quinazolin-4-amine] | > 100 | > 100 | < 0.055 | 0.0299 | 
15 | COc1cc2c(N[C@@H]3CCCNC3)nc(N3CCCC3)nc2cc1OCCCN1CCCC1 [Compound 159, (R)-6-methoxy-N-(piperidin-3-yl)-2-(pyrrolidin-1-yl)-7-(3-(pyrrolidin-1-yl)propoxy)quinazolin-4-amine] | > 100 | > 100 | < 0.055 | 0.0227 | 
